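96-well plates; 48 h exposure; 5 concentrations. Endpoints by linear interpolation between flanking doses. Not reached: highest tested concentration assigned. At the GI50, growth is halved. TGI denotes the concentration required for complete inhibition of growth.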
Tests used:
Test in all cases: DTP human tumour cell line panel, 48 h
NCI-H23 lung = test system: NCI-H23 lung
NCI-H460 lung = test system: NCI-H460 lung
NCI-H522 lung = test system: NCI-H522 lung
NCI/ADR-RES ovarian = test system: NCI/ADR-RES ovarian
OVCAR-3 ovarian = test system: OVCAR-3 ovarian
OVCAR-4 ovarian = test system: OVCAR-4 ovarian
OVCAR-5 ovarian = test system: OVCAR-5 ovarian
OVCAR-8 ovarian = test system: OVCAR-8 ovarian
PC-3 prostate = test system: PC-3 prostate
RPMI-8226 leukemia = test system: RPMI-8226 leukemia
RXF 393 renal = test system: RXF 393 renal
SF-268 CNS = test system: SF-268 CNS
SF-295 CNS = test system: SF-295 CNS
SF-539 CNS = test system: SF-539 CNS
SK-MEL-2 melanoma = test system: SK-MEL-2 melanoma
SK-MEL-28 melanoma = test system: SK-MEL-28 melanoma
SK-MEL-5 melanoma = test system: SK-MEL-5 melanoma
SK-OV-3 ovarian = test system: SK-OV-3 ovarian
SN12C renal = test system: SN12C renal
SNB-19 CNS = test system: SNB-19 CNS
SNB-75 CNS = test system: SNB-75 CNS
SR leukemia = test system: SR leukemia
SW-620 colon = test system: SW-620 colon
T-47D breast = test system: T-47D breast
TK-10 renal = test system: TK-10 renal
U251 CNS = test system: U251 CNS
UACC-257 melanoma = test system: UACC-257 melanoma
UACC-62 melanoma = test system: UACC-62 melanoma
UO-31 renal = test system: UO-31 renal

SMILES: Cc1cccc2c3c(sc12)C(c1ccc(F)cc1)C(C#N)=C(/N=C/c1ccc(Cl)cc1)O3 (stereo not drawn)
- GI50 (NCI-H23 lung): 536 nM
- TGI (NCI-H23 lung): 16400 nM
- GI50 (NCI-H460 lung): 348 nM
- TGI (NCI-H460 lung): 3560 nM
- GI50 (NCI-H522 lung): 91.3 nM
- TGI (NCI-H522 lung): 372 nM
- GI50 (NCI/ADR-RES ovarian): 302 nM
- TGI (NCI/ADR-RES ovarian): 3490 nM
- GI50 (OVCAR-3 ovarian): 395 nM
- TGI (OVCAR-3 ovarian): 5390 nM
- GI50 (OVCAR-4 ovarian): 2270 nM
- TGI (OVCAR-4 ovarian): 20100 nM
- GI50 (OVCAR-5 ovarian): 516 nM
- TGI (OVCAR-5 ovarian): 15400 nM
- GI50 (OVCAR-8 ovarian): 487 nM
- TGI (OVCAR-8 ovarian): 4180 nM
- GI50 (PC-3 prostate): 415 nM
- TGI (PC-3 prostate): 13500 nM
- GI50 (RPMI-8226 leukemia): 421 nM
- TGI (RPMI-8226 leukemia): 7690 nM
- GI50 (RXF 393 renal): 222 nM
- TGI (RXF 393 renal): 664 nM
- GI50 (SF-268 CNS): 1830 nM
- TGI (SF-268 CNS): 16200 nM
- GI50 (SF-295 CNS): 339 nM
- TGI (SF-295 CNS): 11600 nM
- GI50 (SF-539 CNS): 277 nM
- TGI (SF-539 CNS): 827 nM
- GI50 (SK-MEL-2 melanoma): 317 nM
- TGI (SK-MEL-2 melanoma): 17800 nM
- GI50 (SK-MEL-28 melanoma): 1430 nM
- TGI (SK-MEL-28 melanoma): 22600 nM
- GI50 (SK-MEL-5 melanoma): 488 nM
- TGI (SK-MEL-5 melanoma): 3290 nM
- GI50 (SK-OV-3 ovarian): 521 nM
- TGI (SK-OV-3 ovarian): 41900 nM
- GI50 (SN12C renal): 597 nM
- TGI (SN12C renal): 12200 nM
- GI50 (SNB-19 CNS): 552 nM
- TGI (SNB-19 CNS): 19000 nM
- GI50 (SNB-75 CNS): 275 nM
- TGI (SNB-75 CNS): 3630 nM
- GI50 (SR leukemia): 317 nM
- TGI (SR leukemia): 13200 nM
- GI50 (SW-620 colon): 383 nM
- TGI (SW-620 colon): 13100 nM
- GI50 (T-47D breast): 583 nM
- TGI (T-47D breast): 53000 nM
- GI50 (TK-10 renal): 20100 nM
- TGI (TK-10 renal): 66200 nM
- GI50 (U251 CNS): 423 nM
- TGI (U251 CNS): 8760 nM
- GI50 (UACC-257 melanoma): 3810 nM
- TGI (UACC-257 melanoma): 32200 nM
- GI50 (UACC-62 melanoma): 354 nM
- TGI (UACC-62 melanoma): 13400 nM
- GI50 (UO-31 renal): 572 nM
- TGI (UO-31 renal): 15300 nM
